Data as given in ChEMBL document CHEMBL4715865, “Antimyeloma Potential of Caffeic Acid Phenethyl Ester and Its Analogues through Sp1 Mediated Downregulation of IKZF1-IRF4-MYC Axis” (J Nat Prod, 2020).
Activity calls are given as the source filed them. No cut-off for these calls is given here.

Tests used:
[1] = Growth inhibition of human MM1.R cells after 48 hrs by PrestoBlue cell viability assay; format: functional; details: MM.1R
MM.1R [2] = experiment: Down regulation of MYC protein expression in human MM1.R cells at 10 uM after 48 hrs by immunoblotting analysis; format: functional, cell-based
MM.1R [3] = experiment: Down regulation of SP1 protein expression in human MM1.R cells at 10 uM after 48 hrs by immunoblotting analysis; format: functional, cell-based
JJN-3 [4] = experiment: Growth inhibition of human JJN-3 cells after 48 hrs by PrestoBlue cell viability assay; format: functional, cell-based; details: JJN-3, 48 h
[5] = Growth inhibition of human KMM-1 cells after 48 hrs by PrestoBlue cell viability assay; format: functional, cell-based; details: KMM-1, 48 h
MM.1R [6] = experiment: Induction of apoptosis in human MM1.R cells assessed as increase in cleaved caspace-8 protein expression at 10 uM after 48 hrs by immunoblotting analysis; format: functional, cell-based
[7] = Potency index, ratio of lenalidomide IC50 to test compound IC50 for growth inhibition of human KMM-1 cells; format: functional
[8] = Induction of apoptosis in human KMM-1 cells assessed as viable cells at 10 uM after 72 hrs by Annexin V/PropidiumIodide staining based flow cytometric analysis (reference value: 87 +/- 1%); format: functional; details: read-out: Activity
[9] = Growth inhibition of human KMM-1 cells at 10 to 100 uM after 72 hrs by PrestoBlue cell viability assay relative to control; format: functional; details: dose 10-100 µM
MM.1R [10] = experiment: Down regulation of IKZF3 protein expression in human MM1.R cells at 10 to 50 uM after 48 hrs by immunoblotting analysis; format: functional, cell-based; details: dose 10-50 µM
[11] = Induction of apoptosis in human KMM-1 cells assessed as late apoptotic cells at 10 uM after 72 hrs by Annexin V/PropidiumIodide staining based flow cytometric analysis (reference value: 4 +/- 0.5%); format: functional
[12] = Cytotoxicity against human Mononuclear cells assessed as reduction in cll viability at 10 uM after 48 hrs by PrestoBlue cell viability assay; format: cell-based; details: mononuclear cell line
[13] = Induction of apoptosis in human KMM-1 cells assessed as apoptotic cells at 10 uM after 72 hrs by Annexin V/PropidiumIodide staining based flow cytometric analysis relative to control; format: functional
JJN-3 [14] = experiment: Down regulation of IRF4 protein expression in human JJN-3 cells at 10 to 50 uM after 48 hrs by immunoblotting analysis; format: functional, cell-based; details: dose 10-50 µM
MM.1R [15] = experiment: Down regulation of IKZF1 protein expression in human MM1.R cells at 10 to 50 uM after 48 hrs by immunoblotting analysis; format: functional, cell-based; details: dose 10-50 µM
[16] = Growth inhibition of human MM1.R cells at 100 uM after 48 hrs by PrestoBlue cell viability assay relative to control; format: functional; details: MM.1R, read-out: GI
[17] = Induction of apoptosis in human KMM-1 cells assessed as early apoptotic cells at 10 uM after 72 hrs by Annexin V/PropidiumIodide staining based flow cytometric analysis (reference value: 1 +/- 0.4%); format: functional
[18] = Growth inhibition of human KMM-1 cells at 10 uM after 48 hrs by PrestoBlue cell viability assay relative to control; format: functional; details: read-out: GI
JJN-3 [19] = experiment: Down regulation of IKZF1 protein expression in human JJN-3 cells at 10 to 50 uM after 48 hrs by immunoblotting analysis; format: functional, cell-based; details: dose 10-50 µM
[20] = Induction of apoptosis in human MM1.R cells assessed as apoptotic cells at 10 uM after 72 hrs by Annexin V/PropidiumIodide staining based flow cytometric analysis relative to control; format: functional, MM.1R
[21] = Induction of apoptosis in human KMM-1 cells assessed as necrotic cells at 10 uM after 72 hrs by Annexin V/PropidiumIodide staining based flow cytometric analysis (reference value: 8 +/-1%); format: functional
B cell [22] = experiment: Cytotoxicity against human naive B cells assessed as reduction in cll viability at 10 uM after 48 hrs by PrestoBlue cell viability assay; format: cell-based
MM.1R [23] = experiment: Down regulation of IRF4 protein expression in human MM1.R cells at 10 to 50 uM after 48 hrs by immunoblotting analysis; format: functional, cell-based; details: dose 10-50 µM
MM.1R [24] = experiment: Down regulation of MYC protein expression in human MM1.R cells at 5 to 10 uM after 48 hrs by immunoblotting analysis; format: functional, cell-based; details: dose 5-10 µM
MM.1R [25] = experiment: Induction of apoptosis in human MM1.R cells at 10 uM after 48 hrs by Annexin V/Propidium Iodide flow cytometric analysis; format: functional, cell-based
MM.1R [26] = experiment: Down regulation of IKZF3 protein expression in human MM1.R cells at 5 to 10 uM after 48 hrs by immunoblotting analysis; format: functional, cell-based; details: dose 5-10 µM
JJN-3 [27] = experiment: Induction of apoptosis in human JJN-3 cells assessed as increase in cleaved caspace-8 protein expression at 10 to 50 uM after 48 hrs by […]; format: functional, cell-based; details: dose 10-50 µM
MM.1R [28] = experiment: Down regulation of IKZF1 protein expression in human MM1.R cells at 5 to 10 uM after 48 hrs by immunoblotting analysis; format: functional, cell-based; details: dose 5-10 µM
JJN-3 [29] = experiment: Down regulation of IRF4 protein expression in human JJN-3 cells at 10 to 100 uM after 48 hrs in presence of TMP by immunoblotting analysis; format: functional, cell-based; details: dose 10-100 µM
JJN-3 [30] = experiment: Down regulation of SP1 protein expression in human JJN-3 cells at 10 uM after 48 hrs by immunoblotting analysis; format: functional, cell-based
JJN-3 [31] = experiment: Down regulation of IKZF1 protein expression in human JJN-3 cells at 10 to 100 uM after 48 hrs in presence of TMP by immunoblotting analysis; format: functional, cell-based; details: dose 10-100 µM
[32] = Growth inhibition of human KMM-1 cells at 25 uM after 48 hrs by PrestoBlue cell viability assay relative to control; format: functional; details: read-out: GI
[33] = Down regulation of IRF4 protein expression in human KMM-1 cells at 50 uM incubated for 48 hrs by 48 hrs by immunoblotting analysis relative to control; format: functional
KMM-1 [34] = experiment: Growth inhibition of human KMM-1 cells at 1 to 100 uM after 72 hrs by PrestoBlue cell viability assay; format: functional, cell-based; details: dose 1-100 µM
[35] = Induction of apoptosis in human KMM-1 cells assessed as necrotic cells at 25 uM after 72 hrs by Annexin V/PropidiumIodide staining based flow cytometric analysis (reference value: 8 +/-1%); format: functional
[36] = Cytotoxicity against human Mononuclear cells assessed as reduction in cll viability at 25 to 50 uM after 48 hrs by PrestoBlue cell viability assay; format: cell-based; details: mononuclear cell line, dose 25-50 µM
IMR-32 = experiment: Cytotoxicity against human IMR-32 cells assessed as reduction in cell viability after 48 hrs by MTT assay; format: functional, cell-based; details: IMR-32, 48 h
[37] = Induction of apoptosis in human KMM-1 cells assessed as viable cells at 25 uM after 72 hrs by Annexin V/PropidiumIodide staining based flow cytometric analysis (reference value: 87 +/- 1%); format: functional; details: read-out: Activity
MM.1R [38] = experiment: Induction of apoptosis in human MM1.R cells assessed as increase in cleaved caspace-8 protein expression at 5 to 25 uM after 48 hrs by immunoblotting analysis; format: functional, cell-based; details: dose 5-25 µM
[39] = Induction of apoptosis in human KMM-1 cells assessed as early apoptotic cells at 25 uM after 72 hrs by Annexin V/PropidiumIodide staining based flow cytometric analysis (reference value: 1 +/- 0.4%); format: functional
[40] = Growth inhibition of human KMM-1 cells at 50 uM after 48 hrs by PrestoBlue cell viability assay relative to control; format: functional; details: read-out: GI
[41] = Induction of apoptosis in human KMM-1 cells assessed as late apoptotic cells at 25 uM after 72 hrs by Annexin V/PropidiumIodide staining based flow cytometric analysis (reference value: 4 +/- 0.5%); format: functional
KMM-1 [42] = experiment: Growth inhibition of human KMM-1 cells at 1 to 10 uM after 48 hrs by PrestoBlue cell viability assay; format: functional, cell-based; details: dose 1-10 µM
KMM-1 [43] = experiment: Growth inhibition of human KMM-1 cells assessed as induction morphological changes at 25 to 50 uM after 48 hrs by phase contrast microscopic method; format: functional, cell-based; details: dose 25-50 µM
A549 = experiment: Cytotoxicity against human A549 cells assessed as reduction in cell viability after 48 hrs by MTT assay; format: functional, cell-based; details: A549, 48 h
KMM-1 [44] = experiment: Down regulation of IRF4 mRNA expression in human KMM-1 cells at 50 uM incubated for 48 hrs by 48 hrs by RT-PCR analysis; format: functional, cell-based
B cell [45] = experiment: Cytotoxicity against human naive B cells assessed as reduction in cll viability at 25 to 50 uM after 48 hrs by PrestoBlue cell viability assay; format: cell-based; details: dose 25-50 µM
KMM-1 [46] = experiment: Down regulation of Bob-1 protein expression in human KMM-1 cells at 50 uM after 48 hrs by immunoblotting analysis; format: functional, cell-based
[47] = Induction of apoptosis in human KMM-1 cells assessed as increase in cleaved caspace-3 expression at 50 uM after 48 hrs by immunoblotting analysis; format: functional
MM.1R [48] = experiment: Down regulation of SP1 protein expression in human MM1.R cells at 25 uM after 48 hrs by immunoblotting analysis; format: functional, cell-based
JJN-3 [49] = experiment: Down regulation of IKZF1 protein expression in human JJN-3 cells at 50 uM after 48 hrs by immunoblotting analysis; format: functional, cell-based
KMM-1 [50] = experiment: Down regulation of cyclin D3 expression in human KMM-1 cells after 48 hrs by immunoblotting analysis; format: functional, cell-based; details: dose 5-50 µM
JJN-3 [51] = experiment: Down regulation of SP1 protein expression in human JJN-3 cells at 25 uM after 48 hrs by immunoblotting analysis; format: functional, cell-based
KMM-1 [52] = experiment: Down regulation of OCT2 protein expression in human KMM-1 cells at 50 uM after 48 hrs by immunoblotting analysis; format: functional, cell-based
JJN-3 [53] = experiment: Down regulation of IRF4 protein expression in human JJN-3 cells at 50 uM after 48 hrs by immunoblotting analysis; format: functional, cell-based

Compound	IC50 [1]	Activity (MM.1R [3])	IC50 (JJN-3 [4])	IC50 [5]	Activity (MM.1R [6])	Ratio IC50 [7]	viability at 10 µM [8]	Activity [11]	Activity [13]	Activity [17]	inhibition of growth at 10 µM [18]	Activity [20]	Activity [21]	Activity (MM.1R [25])	Activity (JJN-3 [30])	inhibition of growth at 25 µM [32]	Activity [33]	growth inhibition (GI) (KMM-1 [34])	Activity [35]	Activity [36]	also measured
Oc1ccc(/C=C/COCCCc2ccccc2)cc1O	2 µM	inactive	14 µM	6.6 µM	Active	6.5															Activity (MM.1R [2]): inactive
Nc1cccc2c1CN(C1CCC(=O)NC1=O)C2=O (stereo not drawn) [LENALIDOMIDE]							78%	6%	17.4%	4%	7.5%	46%	12%								growth inhibition (GI) [9]: >25%; Activity (MM.1R [10]): inactive; Activity [12]: Non-Toxic; Activity (JJN-3 [14]): Active; Activity (MM.1R [15]): Active; inhibition of growth at 100 µM [16]: 47%; Activity (JJN-3 [19]): Active; Activity (B cell [22]): Non-Toxic; Activity (MM.1R [23]): inactive
O=C(/C=C/c1cc(O)ccc1O)OCCCc1ccccc1	0.6 µM	Active	3.9 µM	1.9 µM	Active	12			64.5%		89.7%	54%		Active	Active						Activity (MM.1R [24]): Active; Activity (MM.1R [26]): Active; Activity (JJN-3 [27]): Active; Activity (MM.1R [28]): Active; Activity (JJN-3 [29]): Active; Activity (JJN-3 [31]): Active
O=C(/C=C/c1ccc(O)c(O)c1)OCCc1ccccc1 [CAFFEIC ACID PHENETHYL ESTER]	17.8 µM	Active	30 µM	37.5 µM			71%	9%	25.8%	3%		41%	17%		Active	38.7%	26%	Active	31%	Non-Toxic	IC50 (IMR-32): 5 µM; viability at 25 µM [37]: 51%; Activity (MM.1R [38]): Active; Activity [39]: 4%; inhibition of growth at 50 µM [40]: 59%; Activity [41]: 15%; growth inhibition (GI) (KMM-1 [42]): Active; growth inhibition (GI) (KMM-1 [43]): Active; IC50 (A549): 80 µM; Activity (KMM-1 [44]): Active; Activity (B cell [45]): Non-Toxic
O=C(/C=C/c1ccc(O)c(O)c1)OCCCc1ccccc1	4.9 µM		6.7 µM	12 µM			55%	14%	40.4%	4%	28%	30%	27%	Active		58.3%	62%	Active	43%	Non-Toxic	Activity (KMM-1 [46]): Active; fold change (FC) [47]: 2.9; Activity (MM.1R [48]): Active; Activity (JJN-3 [49]): Active; viability at 25 µM [37]: 32%; Activity (KMM-1 [50]): Dose-dependent effect; Activity (MM.1R [38]): Active; Activity [39]: 7%; inhibition of growth at 50 µM [40]: 80%; Activity [41]: 17.2%; Activity (JJN-3 [51]): Active; Activity (KMM-1 [52]): Active; Activity (JJN-3 [53]): Active; Activity (KMM-1 [44]): Active; Activity (B cell [45]): Non-Toxic
